In US6676957B1 (priority 2000, dated 2004):

Experiments:
[1] = system: TSST-1 production by Staphylococcus aureus MN8; format: cell-based; conditions: 24 hours at 35° C.
S. aureus MN8 = format: cell-based, Staphylococcus aureus; conditions: 24 hours at 35° C.

Substance | TSST-1 [1] [ng/mL] | Final [S. aureus] (S. aureus MN8)
Laureth-4 | 531.8 | 4.57 × 10^9 CFU/ml
PPG-5 Laureth-5 | 609.2 | 3.82 × 10^9 CFU/ml
Steareth-2 | 680.7 | 5.76 × 10^9 CFU/ml
